Measured values as given in patent US10765114B2, “4-amino-6-(pyridyl and 2-substitutedphenyl)-picolinates and 6-amino-2-(pyridyl and 2-substitutedphenyl)-pyrimidine-4-carboxylates and their use as herbicides” (Dow AgroSciences LLC, priority 2013, dated 2020).

Experiments:
Experiment in all cases: Postemergence Herbicidal Activity in Direct Seeded Rice
Assay type in all cases: in vivo
[1] = tested on: SEBEX: hemp sesbania, Sesbania exaltata; conditions: for Visual Growth Reduction (%) 21 Days After Application, SEBEX: postemergence, direct seeded rice; for GR50, SEBEX: Growth reduction of 50% of plant growth; for GR50, SEBEX / GR80, SEBEX: probit analysis; for GR80, SEBEX: Growth reduction of 80% of plant growth
Description: (§1) Seeds or nutlets of the desired test plant species were planted in a soil matrix prepared by mixing a loam soil (43 percent silt, 19 percent clay, and 38 percent sand, with a pH of about 8.1 and an organic matter content of about 1.5 percent) and river sand in an 80 to 20 ratio. The soil matrix was contained in plastic pots with a surface area of 139.7 cm^2. When required to ensure good germination and healthy plants, a fungicide treatment and/or other chemical or physical treatment was applied. The plants were grown for 10-17 days in a greenhouse with an approximate 14-h photoperiod which was maintained at about 29° C. during the day and 26° C. during the night. Nutrients and water were added on a regular basis and supplemental lighting was provided with overhead metal halide 1000-Watt lamps as necessary. The plants were employed for testing when they reached the second or third true leaf stage.
(§2) A weighed amount, determined by the highest rate to be tested, of each test compound was placed in 25 mL glass vials and dissolved in a volume of 97:3 v/v acetone-DMSO to obtain 12× stock solutions. […] The concentrated stock solutions were added to the spray solutions so that the final acetone and DMSO concentrations were 16.2% and 0.5%, respectively. Spray solutions were diluted to the appropriate final concentrations with the addition of 10 mL of an aqueous mixture of 1.5% (v/v) Agri-dex crop oil concentrate. The final spray solutions contained 1.25% (v/v) Agri-dex crop oil concentrate. Compound requirements are based upon a 12 mL application volume at a rate of 187 L/ha. Formulated compounds were applied to the plant material with an overhead Mandel track sprayer equipped with 8002E nozzles calibrated to deliver 187 L/ha over an application area of 0.503 square meters (m^2) at a spray height of 18 inches (43 cm) above average plant canopy height. Control plants were sprayed in the same manner with the solvent blank.
(§3) The treated plants and control plants were placed in a greenhouse as described above and watered by sub-irrigation to prevent wash-off of the test compounds. After 20-22 days, the condition of the test plants, compared with that of the untreated plants, was determined visually and scored on a scale of 0 to 100 percent where 0 corresponds to no injury and 100 corresponds to complete kill and presented as indicated in Table A.
(§4) By applying the well-accepted probit analysis as described by J. Berkson in Journal of the American Statistical Society, 48, 565 (1953) and by D. Finney in “Probit Analysis” Cambridge University Press (1952), herbicidal injury of a specific compound at various rates can be used to calculate GR20, GR50, GR80 and GR90 values, which are defined as growth reduction factors that correspond to the effective dose of herbicide required to provide plant growth reduction (GR) of 20 percent, 50 percent, 80 percent and 90 percent, respectively. Probit analysis was applied to data collected from multiple dose rates of individual compounds utilizing the procedures explained in the following examples. The analysis of those dose rates is captured in the following tables

[2] = tested on: SCPJU: Japanese bulrush, Schoenoplectus juncoides; conditions: for Visual Growth Reduction (%) 21 Days After Application, SCPJU: postemergence, direct seeded rice; for GR50, SCPJU: Growth reduction of 50% of plant growth; for GR50, SCPJU / GR80, SCPJU: probit analysis; for GR80, SCPJU: Growth reduction of 80% of plant growth
Description: as §1, §2, §3, §4

[3] = tested on: BRAPP: broadleaf signalgrass, Brachiaria platyphylla; conditions: for Visual Growth Reduction (%) 21 Days After Application, BRAPP: postemergence, direct seeded rice; for GR50, BRAPP: Growth reduction of 50% of plant growth; for GR50, BRAPP / GR80, BRAPP: probit analysis; for GR80, BRAPP: Growth reduction of 80% of plant growth
Description: as §1, §2, §3, §4

[4] = tested on: CYPSS: sedge including small-flower flatsedge (Cyperus difformis), yellow nutsedge (Cyperus esculentus), rice flatsedge (Cyperus iria); conditions: for Visual Growth Reduction (%) 21 Days After Application, CYPSS: postemergence, direct seeded rice; for GR50, CYPSS: Growth reduction of 50% of plant growth; for GR50, CYPSS / GR80, CYPSS: probit analysis; for GR80, CYPSS: Growth reduction of 80% of plant growth
Description: as §1, §2, §3, §4

ORYSS: Oryza sativa = conditions: for Visual Growth Reduction (%) 21 Days After Application, ORYSS: postemergence, direct seeded rice; for GR20, ORYSS: Growth reduction of 20% of plant growth, probit analysis
Description: as §1, §2, §3, §4

[5] = tested on: LEFSS: sprangletop including Chinese sprangletop (Leptochloa chinensis), green sprangletop (Leptochloa dubia); conditions: for Visual Growth Reduction (%) 21 Days After Application, LEFSS: postemergence, direct seeded rice; for GR50, LEFSS: Growth reduction of 50% of plant growth; for GR50, LEFSS / GR80, LEFSS: probit analysis; for GR80, LEFSS: Growth reduction of 80% of plant growth
Description: as §1, §2, §3, §4

[6] = tested on: ECHSS: including barnyardgrass, (Echinochloa crus-galli), junglerice, (Echinochloa colonum); conditions: for Visual Growth Reduction (%) 21 Days After Application, ECHSS: postemergence, direct seeded rice; for GR50, ECHSS: Growth reduction of 50% of plant growth; for GR50, ECHSS / GR80, ECHSS: probit analysis; for GR80, ECHSS: Growth reduction of 80% of plant growth
Description: as §1, §2, §3, §4

SMILES | Visual Growth Reduction (%) 21 Days After Application, SEBEX ([1]; 35 g ai/ha) | Visual Growth Reduction (%) 21 Days After Application, SEBEX ([1]; 70 g ai/ha) | GR50, SEBEX [1] | GR80, SEBEX [1] | Visual Growth Reduction (%) 21 Days After Application, SCPJU ([2]; 35 g ai/ha) | Visual Growth Reduction (%) 21 Days After Application, SCPJU ([2]; 70 g ai/ha) | GR50, SCPJU [2] | GR80, SCPJU [2] | Visual Growth Reduction (%) 21 Days After Application, BRAPP ([3]; 35 g ai/ha) | Visual Growth Reduction (%) 21 Days After Application, BRAPP ([3]; 70 g ai/ha) | GR50, BRAPP [3] | GR80, BRAPP [3] | Visual Growth Reduction (%) 21 Days After Application, CYPSS ([4]; 35 g ai/ha) | Visual Growth Reduction (%) 21 Days After Application, CYPSS ([4]; 70 g ai/ha) | GR50, CYPSS [4] | GR80, CYPSS [4] | Visual Growth Reduction (%) 21 Days After Application, ORYSS (ORYSS: Oryza sativa; 35 g ai/ha) | Visual Growth Reduction (%) 21 Days After Application, ORYSS (ORYSS: Oryza sativa; 70 g ai/ha) | GR20, ORYSS (ORYSS: Oryza sativa) | Visual Growth Reduction (%) 21 Days After Application, LEFSS ([5]; 35 g ai/ha) | further results
COC(=O)c1nc(-c2ccc(C(F)(F)F)nc2)c(C)c(N)c1Cl [Compound 32] | A (95-100) | A (95-100) | 3 g ai/ha | 9 g ai/ha | A (95-100) | A (95-100) | <17.5 g ai/ha | <17.5 g ai/ha | B (85-94) | B (85-94) | 14 g ai/ha | 35 g ai/ha | A (95-100) | A (95-100) | 1 g ai/ha | 2 g ai/ha | G (0-29) | F (30-44) | 36 g ai/ha | F (30-44) | Visual Growth Reduction (%) 21 Days After Application, LEFSS ([5]; 70 g ai/ha): E (45-59); GR50, LEFSS [5]: 59 g ai/ha; GR80, LEFSS [5]: 133 g ai/ha; Visual Growth Reduction (%) 21 Days After Application, ECHSS ([6]; 35 g ai/ha): B (85-94); Visual Growth Reduction (%) 21 Days After Application, ECHSS ([6]; 70 g ai/ha): A (95-100); GR50, ECHSS [6]: 21 g ai/ha; GR80, ECHSS [6]: 35 g ai/ha
Nc1c(Cl)c(C(=O)O)nc(-c2ccc(C(F)(F)F)nc2)c1Cl [Compound 33] | A (95-100) | A (95-100) | 1 g ai/ha | 1 g ai/ha | A (95-100) | A (95-100) | <17.5 g ai/ha | <17.5 g ai/ha | A (95-100) | A (95-100) | 3 g ai/ha | 11 g ai/ha | A (95-100) | A (95-100) | 4 g ai/ha | 7 g ai/ha | D (60-74) | C (75-84) | 8 g ai/ha | E (45-59) | Visual Growth Reduction (%) 21 Days After Application, LEFSS ([5]; 70 g ai/ha): C (75-84); GR50, LEFSS [5]: 30 g ai/ha; GR80, LEFSS [5]: 77 g ai/ha; Visual Growth Reduction (%) 21 Days After Application, ECHSS ([6]; 35 g ai/ha): C (75-84); Visual Growth Reduction (%) 21 Days After Application, ECHSS ([6]; 70 g ai/ha): A (95-100); GR50, ECHSS [6]: 1 g ai/ha; GR80, ECHSS [6]: 1 g ai/ha
